Experimental data published in patent US4450163A, “Process for the preparation of 1,3,7-trialkyl xanthines and di(3,7-dimethylxanthin-1-yl)methane as a medicament” (Societe d'Assistance Technique pour Produits Nestle S.A., priority 1979, dated 1984).

Experiments:
[1] = system: ear-swelling in mice in response to antigenic challenge; assay: dermal delayed hypersensitivity test (oxazolone), inhibition of ear-swelling in mice; type: in vivo; details: oxazolone sensitized, 150 mg/kg b.w. i.p. at challenge, ear thickness 24 hours after challenge, compared to control animals
Protocol: Immunosuppression of the compound of Example 25 was compared with cyclophosphamide, a known immunosuppressant drug, as an inhibitor of ear-swelling in mice in response to antigenic challenge in a dermal delayed hypersensitivity test at 150 mg/kg body weight.
The test was performed as is described e.g. by G. L. Asherton and W. Ptak in Immunology 15, 405 (1968). Mice were immunized by applying on the abdomen skin 0.1 ml of a 3% oxazolone solution. 7 days after sensitization, they were challenged by painting the same solution on the ear skin. Part of the mice were simultaneously administered i.p. the immunosuppressant drug of Example 25 or cyclophosphamide. The remaining animals served as controls. 24 hours after challenge, the increase in ear thickness was measured. Immunosuppressant activity was expressed in % of inhibition of ear-swelling in drug-administered mice compared to control animals.

[2] = pharmacological studies (immunosuppressant activity, adverse effects); type: in vivo; details: in words

O=P1(N(CCCl)CCCl)NCCCO1 (stereo not shown) [Cyclophosphamide, reference compound]
% inhib. of ear-swelling [1]: 73%

Cn1cnc2c1c(=O)n(Cn1c(=O)c3c(ncn3C)n(C)c1=O)c(=O)n2C [Example 25, di(3,7-dimethylxanthin-1-yl)methane]
% inhib. of ear-swelling [1]: 55%
immunosuppressant activity [2]: has an immunosuppressant activity
toxic adverse effect [2]: no toxic adverse effect
